Assay results reported in patent US8829014B2, “Thiazole and thiophene analogues, and their use in treating autoimmune diseases and cancers” (Board of Supervisors of Louisiana State University and …, priority 2006, dated 2014).

Legend:
[1] = system: NF-κB; assay: TNF-α-induced NF-κB-dependent luciferase expression in HEK cells; type: cell-based; settings: luciferase in HEK/NF-κB cells, as described in Example 398; for inhibition at 1 µM: Homo sapiens, HEK293, 1 uM, read-out: NFkB inhibition @ 1 uM
[2] = system: carageenan-induced edema; assay: Carrageenan-induced rat paw edema test (anti-inflammatory activity); type: in vivo, Sprague-Dawley rats
Procedure, shortened: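 Edema was raised by sub-plantar injection of 1% carrageenan into the right hind paw, 1 h after dosing 18 h-fasted male/female Sprague-Dawley rats (150-250 g) with 50 mg/kg p.o. in 0.1% CMC. Swelling was measured by displacement 3 h later and expressed as % protection against saline control.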

[3] = system: AP-1; assay: PMA-induced AP-1 luciferase expression in HEK cells; type: cell-based; settings: luciferase in HEK/AP-1 cells, as described in Example 398; for inhibition at 1 µM: AP1, 1 uM
[4] = Rattus norvegicus, po, 3 h, rat paw edema, 50 mg/kg, reading 3 hours after carrageenan; [(Control−Test)/Control]×100%; read-out: % Protection P
[5] = rat paw edema, 50 mg/kg, reading 3 hours after carrageenan; [(Control−Test)/Control]×100%; 50 mg/kg
[6] = rat paw edema, 50 mg/kg, reading 3 hours after carrageenan; [(Control−Test)/Control]×100%

SMILES | inhibition at 1 µM [1] | inhibition in vivo at 50 mg/kg [2, 4] | inhibition at 1 µM [3] | NFkB inhibition @ 1 uM [1] | % Protection P [2, 5] | AP-1 inhibition @ 1 uM [3] | % Protection P [2, 6]
CS(=O)(=O)c1ccc(C(=O)c2cc(-c3ccc(Cl)cc3)c(N3CCOCC3)s2)cc1 [Example 84, [4-(4-Chloro-phenyl)-5-morpholin-4-yl-thiophen-2-yl]-(4-methansulfonyl-phenyl)-methanone] | -11.7% | 23% | 30.9% | – | – | – | –
O=C(c1cccnc1)c1cc(-c2ccc(Cl)cc2)c(N2CCOCC2)s1 [Example 86, [4-(4-Chloro-phenyl)-5-morpholin-4-yl-thiophen-2-yl]-pyridin-3-yl-methanone] | 3.6% | 28.1% | 15.2% | – | – | – | –
Cc1ccc(C(=O)c2cc(-c3cccnc3)c(N3CCOCC3)s2)cc1 [Example 91, (5-Morpholin-4-yl-4-pyridin-3-yl-thiophene-2-yl)-p-tolyl-methanone] | 1.28% | 25.3% | 49% | – | – | – | –
CSc1ccc(C(=O)c2cc(-c3cccnc3)c(N3CCOCC3)s2)cc1 [Example 95, (4-Methylsulfanyl-phenyl)-(5-morpholin-4-yl-4-pyridin-3-yl-thiophen-2-yl)-methanone] | – | – | – | 11.24 | 42.44% | 64.02 | –
CS(=O)(=O)c1ccc(C(=O)c2cc(-c3cccnc3)c(N3CCOCC3)s2)cc1 [Example 96, (4-Methylsulfonyl-phenyl)-(5-morpholin-4-yl-4-pyridin-3-yl-thiophen-2-yl)-methanone] | -12.9% | 46.8% | 37.7% | – | – | – | –
COc1c(C)cc(-c2cc(-c3ccncc3)c(N3CCOCC3)s2)nc1C [Example 100, 4-[5-(5-Methoxy-4,6-dimethyl-pyridin-2-yl)-3-pyridin-4-yl-thiophen-2-yl]-morpholine] | 5.21% | 54.2% | 47.4% | – | – | – | –
Cc1ccc(C(=O)c2cc(-c3ccncc3)c(N3CCOCC3)s2)cc1 [Example 103, (5-Morpholin-4-yl-4-pyridin-4-yl-thiophene-2-yl)-p-tolyl-methanone] | 10.3% | -30.8% | 4.35% | – | – | – | –
CSc1ccc(C(=O)c2cc(-c3cccnc3)c(N3CCOCC3)s2)cc1 [Example 107, (4-Methylsulfanyl-phenyl)-(5-morpholin-4-yl-4-pyridin-3-yl-thiophen-2-yl)-methanone] | – | – | – | 1.69 | −42.44% | 19.05 | –
CS(=O)(=O)c1ccc(C(=O)c2cc(-c3ccncc3)c(N3CCOCC3)s2)cc1 [Example 108, (4-Methylsulfonyl-phenyl)-(5-morpholin-4-yl-4-pyridin-4-yl-thiophen-2-yl)-methanone] | -8.31% | 54.2% | 46.6% | – | – | – | –
COc1ccc(C(=O)c2sc(Nc3ccccc3)nc2NC(=O)Nc2ccc(F)cc2)cc1 [Example 117, 1-(4-Fluoro-phenyl)-3-[5-(4-methoxy-benzoyl)-2-phenylamino-thiazol-4-yl]-urea] | 22.1% | – | 51% | – | 58.62% | – | –
CNc1nc(C)c(C(=O)c2sc(NC)nc2C)s1 [Example 118, Bis-(4-methyl-2-methylamino-thiazole-5-yl)-methanone] | 8.84% | 40.9% | 33.4% | – | – | – | –
Cc1nc(Nc2ccccc2)sc1C(=O)c1sc(Nc2ccccc2)nc1C [Example 119, Bis-(4-methyl-2-phenylamino-thiazole-5-yl)-methanone] | 8.39% | 45.5% | 26% | – | – | – | –
Cc1nc(Nc2ccc(Cl)cc2)sc1C(=O)c1sc(Nc2ccc(Cl)cc2)nc1C [Example 120, Bis-[2-(4-Chloro-phenylamino)-4-methyl-thiazole-5-yl]-methanone] | 20.3% | 64.6% | 76.2% | – | – | – | –
CCOC(=O)Nc1nc(C)c(C(=O)c2sc(NC(=O)OCC)nc2C)s1 [Example 124, Diethyl[carbonyl-bis(4-methyl-1,3-thiazole-5,2-diyl)]biscarbamate] | 20.1% | 65.7% | 71.6% | – | – | – | –
CNc1nc(-c2ccccc2)c(C(=O)c2sc(NC)nc2-c2ccccc2)s1 [Example 125, Bis-(2-methylamino-4-Phenyl-thiazole-5-yl)-methanone] | 27.1% | 23.2% | 23.8% | – | – | – | –
COC(=O)Nc1nc(Cc2ccccc2)c(C(=O)c2sc(NC(=O)OC)nc2Cc2ccccc2)s1 [Example 137, Dimethyl[carbonyl-bis(4-benzyl-1,3-thiazole-5,2-diyl)]biscarbamate] | 7.69% | 47.2% | 51.3% | – | – | – | –
CCOC(=O)Nc1nc(Cc2ccccc2)c(C(=O)c2sc(NC(=O)OCC)nc2Cc2ccccc2)s1 [Example 138, Diethyl[carbonyl-bis(4-benzyl-1,3-thiazole-5,2-diyl)]biscarbamate] | 55.6% | 88.9% | 83.6% | – | – | – | –
O=C(CCl)Nc1ccccc1C(=O)O [Example 139, 2-(2-Chloroacetylamino) benzoic acid] | 62.6% | 69.6% | 74.4% | – | – | – | –
O=c1c2ccccc2nc(-c2cc(-c3ccccc3)c(N3CCOCC3)s2)n1-c1ccccc1 [Example 272, 2-(5-Morpholin-4-yl-4-phenyl-thiophene-2-yl)-3-phenyl-3H-quinazolin-4-one] | -2% | 30% | 11% | – | – | – | –
O=c1c2ccccc2nc(-c2cc(-c3ccc(Cl)cc3)c(N3CCOCC3)s2)n1-c1ccccc1 [Example 273, 2-[4-(4-Chloro-phenyl)-5-morpholin-4-yl-thiophen-2-yl]-3-phenyl-3H-quinazolin-4-one] | -35% | 0% | -17% | – | – | – | –
CS(=O)(=O)c1ccc(-c2cc(-c3nc4ccccc4c(=O)n3-c3ccccc3)sc2N2CCOCC2)cc1 [Example 275, 2-[4-(4-Methanesulfonyl-phenyl)-5-morpholin-4-yl-thiophen-2-yl]-3-phenyl-3H-quinazolin-4-one] | 9% | 25% | 28% | – | – | – | –
CSc1ccc(-c2cc(-c3nc4ccccc4c(=O)n3-c3ccccc3C)sc2N2CCOCC2)cc1 [Example 282, 2-[4-(4-Methylsulfanylphenyl)-5-morpholin-4-yl-thiophen-2-yl]-3-0-tolyl-3H-quinazolin-4-one] | – | – | – | 53 | – | −18 | 51%
CC(=O)Nc1ccc(-c2cc(-c3nc4ccccc4c(=O)n3-c3cccc(C)c3)sc2N2CCOCC2)cc1 [Example 286, N-{4-[2-Morpholin-4-yl-5-(4-oxo-3-m-tolyl-3-,4-dihydro-quinazolin-2-yl)-thiophene-3-yl]-phenyl}-acetamide] | – | – | – | 35 | – | 13 | 52%
Cc1cccc(-n2c(-c3cc(-c4ccncc4)c(N4CCOCC4)s3)nc3ccccc3c2=O)c1 [Example 289, 2-(5-Morpholin-4-yl-4-pyridin-4-yl-thiophen-2-yl)-3-m-tolyl-3H-quinazolin-4-one] | 42% | 30% | 35% | – | – | – | –
COc1ccccc1-n1c(-c2cc(-c3ccc(S(C)(=O)=O)cc3)c(N3CCOCC3)s2)nc2ccccc2c1=O [Example 297, 2-[4-(4-Methanesulphonyl-phenyl)-5-morpholin-4-yl-thiophen-2-yl]-3-(2-methoxy-phenyl)-3H-quinazolin-4-one] | 55% | 63% | 33% | – | – | – | –
COc1cccc(-n2c(-c3cc(-c4ccc(S(C)(=O)=O)cc4)c(N4CCOCC4)s3)nc3ccccc3c2=O)c1 [Example 300, 2-[4-(4-Methanesulphonyl-phenyl)-5-morpholin-4-yl-thiophen-2-yl]-3-(3-methoxy-phenyl)-3H-quinazolin-4-one] | 20% | 48% | -4% | – | – | – | –
COc1ccc(-n2c(-c3cc(-c4ccc(S(C)(=O)=O)cc4)c(N4CCOCC4)s3)nc3ccccc3c2=O)cc1 [Example 303, 2-[4-(4-Methanesulphonyl-phenyl)-5-morpholin-4-yl-thiophen-2-yl]-3-(4-methoxy-phenyl)-3H-quinazolin-4-one] | 60% | 53% | 10% | – | – | – | –
O=c1c2ccccc2nc(-c2cc(-c3ccncc3)c(N3CCOCC3)s2)n1-c1ccccc1Cl [Example 308, 3-(2-Chloro-phenyl)-2-(5-morpholin-4-yl-4-pyridin-4-yl-thiophen-2-yl)-3H-quinazolin-4-one] | 80% | 43% | 35% | – | – | – | –
O=c1c2ccccc2nc(-c2cc(-c3ccccc3)c(N3CCOCC3)s2)n1-c1ccc(Cl)cc1 [Example 309, 3-(4-Chloro-phenyl)-2-(5-morpholin-4-yl-4-phenyl-thiophen-2-yl)-3H-quinazolin-4-one] | 0% | 66% | 2% | – | – | – | –
